In ChEMBL document CHEMBL1201862, “PubChem BioAssay data set” (2004):
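The compound was tested at five concentrations on cells cultured in 96-well plates, with a 48-hour exposure period. Here, GI50 denotes the concentration required for 50% inhibition of growth.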 The source made the active and inactive calls. No stated cut-off is given here; in the data, active = GI50 up to about 1.1 µM and inactive = higher.

Legend:
Test in all cases: DTP human tumour cell line panel, 48 h
SN12C = test system: SN12C
DMS-114 = test system: DMS-114
HCT-15 = test system: HCT-15
U-251 = test system: U-251
M14 = test system: M14
SK-OV-3 = test system: SK-OV-3
A498 = test system: A498
OVCAR-8 = test system: OVCAR-8
CCRF-CEM = test system: CCRF-CEM
MOLT-4 = test system: MOLT-4
SK-MEL-28 = test system: SK-MEL-28
EKVX = test system: EKVX
SF-268 = test system: SF-268
LOX IMVI = test system: LOX IMVI
KM12 = test system: KM12

Compound	GI50 (SN12C)	GI50 (DMS-114)	GI50 (HCT-15)	GI50 (U-251)	GI50 (M14)	GI50 (SK-OV-3)	GI50 (A498)	GI50 (OVCAR-8)	GI50 (CCRF-CEM)	GI50 (MOLT-4)	GI50 (SK-MEL-28)	GI50 (EKVX)	GI50 (SF-268)	GI50 (LOX IMVI)	GI50 (KM12)
C[C@]12CCC(=O)CC1CCCC2=O (some centres undefined)	> 100 µM (inactive)	> 100 µM (inactive)	> 100 µM	> 100 µM (inactive)	> 100 µM (inactive)	> 100 µM (inactive)	> 100 µM (inactive)	> 100 µM (inactive)	> 100 µM (inactive)	> 100 µM (inactive)	> 100 µM (inactive)	> 100 µM (inactive)	> 100 µM (inactive)	> 100 µM (inactive)	> 100 µM (inactive)
O=c1cccccc1NCCCCCCNc1cccccc1=O	> 100 µM (inactive)	> 100 µM (inactive)	> 100 µM	> 100 µM (inactive)	> 100 µM (inactive)	> 100 µM (inactive)	> 100 µM (inactive)	> 100 µM (inactive)	> 100 µM (inactive)	> 100 µM (inactive)	> 100 µM (inactive)	> 100 µM (inactive)	> 100 µM (inactive)	> 100 µM (inactive)	> 100 µM (inactive)
COC(=O)[C@H](Cc1ccccc1)NC(=O)/C(=C/C(C)C)NC(=O)[C@H](CCSC)NC=O	> 100 µM (inactive)	> 100 µM (inactive)	> 100 µM	> 100 µM (inactive)	> 100 µM (inactive)	> 100 µM (inactive)	> 100 µM (inactive)	> 100 µM (inactive)	> 100 µM (inactive)	> 100 µM (inactive)	> 100 µM (inactive)	> 100 µM (inactive)	> 100 µM (inactive)	> 100 µM (inactive)	> 100 µM (inactive)
O=C(CC(=O)c1ccccc1)CC(O)(c1ccccc1)c1ccccc1	4.99 µM (inactive)	2.06 µM (inactive)	4.89 µM	3.32 µM (inactive)	3.61 µM (inactive)	9.31 µM (inactive)	12.1 µM (inactive)	5.26 µM (inactive)	3.37 µM (inactive)	1.88 µM (inactive)	13.1 µM (inactive)	6.1 µM (inactive)	6.9 µM (inactive)	–	7.76 µM (inactive)
CCOC(=O)C1=C(NC)OCC1=O	> 100 µM (inactive)	> 100 µM (inactive)	> 100 µM	> 100 µM (inactive)	> 100 µM (inactive)	> 100 µM (inactive)	> 100 µM (inactive)	> 100 µM (inactive)	> 100 µM (inactive)	–	> 100 µM (inactive)	> 100 µM (inactive)	> 100 µM (inactive)	> 100 µM (inactive)	> 100 µM (inactive)
O=c1cc[nH]c2c1ccc1ncccc12	> 100 µM (inactive)	> 100 µM (inactive)	> 100 µM	> 100 µM (inactive)	> 100 µM (inactive)	> 100 µM (inactive)	> 100 µM (inactive)	> 100 µM (inactive)	> 100 µM (inactive)	> 100 µM (inactive)	> 100 µM (inactive)	> 100 µM (inactive)	> 100 µM (inactive)	> 100 µM (inactive)	> 100 µM (inactive)
COc1cc(Cc2cc(OC)c(OC)c(OC)c2)ccc1O	21.8 µM (inactive)	4.63 µM (inactive)	3.28 µM	19.9 µM (inactive)	5 µM (inactive)	39.4 µM (inactive)	–	25.5 µM (inactive)	6.32 µM (inactive)	4.27 µM (inactive)	39.7 µM (inactive)	27 µM (inactive)	36.3 µM (inactive)	8.57 µM (inactive)	6.62 µM (inactive)
CCCCCCCSCC1OC(n2cnc3c(N)ncnc32)C(O)C1O (centres undefined)	21.8 µM (inactive)	18 µM (inactive)	4.5 µM	> 100 µM (inactive)	22.5 µM (inactive)	–	14.2 µM (inactive)	14.4 µM (inactive)	39.4 µM (inactive)	19.1 µM (inactive)	> 100 µM (inactive)	20.5 µM (inactive)	34.2 µM (inactive)	49.9 µM (inactive)	8.22 µM (inactive)
C/C(=N\NC(=S)Nc1ccc([N+](=O)[O-])cc1S(=O)(=O)O)c1ccccn1	59 µM (inactive)	39.7 µM (inactive)	37.6 µM	33.5 µM (inactive)	64 µM (inactive)	–	36.7 µM (inactive)	34.3 µM (inactive)	39.9 µM (inactive)	40.1 µM (inactive)	> 100 µM (inactive)	37.9 µM (inactive)	95.3 µM (inactive)	53.2 µM (inactive)	51.8 µM (inactive)
CC(C)Cc1cccc(C(C)C)c1NC(=O)CCC(=O)N/N=C1\C(=N/NC(=O)CCC(=O)Nc2c(C(C)C)cccc2C(C)C)C(c2ccc3c(c2)OCO3)Oc2ccccc21 (centres undefined)	43.2 µM (inactive)	42.6 µM (inactive)	17.1 µM	35 µM (inactive)	> 100 µM (inactive)	> 100 µM (inactive)	> 100 µM (inactive)	69.3 µM (inactive)	28.8 µM (inactive)	57.3 µM (inactive)	> 100 µM (inactive)	9.64 µM (inactive)	67.8 µM (inactive)	44.5 µM (inactive)	> 100 µM (inactive)
CC(=O)C(CN(C)C)C(c1ccccc1)c1c(O)c2ccccc2oc1=O (centres undefined)	> 100 µM (inactive)	93.3 µM (inactive)	> 100 µM	> 100 µM (inactive)	> 100 µM (inactive)	> 100 µM (inactive)	–	> 100 µM (inactive)	> 100 µM (inactive)	> 100 µM (inactive)	> 100 µM (inactive)	> 100 µM (inactive)	> 100 µM (inactive)	> 100 µM (inactive)	> 100 µM (inactive)
O=C(Cc1ccccc1)NN1C(=O)C(Cl)C1c1ccc(Cl)cc1 (centres undefined)	> 100 µM (inactive)	> 100 µM (inactive)	> 100 µM	> 100 µM (inactive)	> 100 µM (inactive)	> 100 µM (inactive)	–	> 100 µM (inactive)	> 100 µM (inactive)	30.6 µM (inactive)	> 100 µM (inactive)	> 100 µM (inactive)	> 100 µM (inactive)	> 100 µM (inactive)	> 100 µM (inactive)
CC#N.O[C@@H]1CCCC[C@@H]1O.O[C@@H]1CCCC[C@@H]1O.[TeH2]	24.2 µM (inactive)	24.4 µM (inactive)	18.8 µM	12.9 µM (inactive)	> 100 µM (inactive)	77.8 µM (inactive)	30.4 µM (inactive)	21.8 µM (inactive)	11.6 µM (inactive)	13.8 µM (inactive)	72.3 µM (inactive)	> 100 µM (inactive)	69.2 µM (inactive)	10.6 µM (inactive)	50.8 µM (inactive)
COc1ccc(C=O)c(NC(=O)C(C)C)c1	23 µM (inactive)	24.4 µM (inactive)	33.3 µM	77.1 µM (inactive)	37.6 µM (inactive)	> 100 µM (inactive)	49.7 µM (inactive)	30.8 µM (inactive)	> 10 µM (inactive)	21.3 µM (inactive)	69.2 µM (inactive)	31.6 µM (inactive)	36.2 µM (inactive)	31.7 µM (inactive)	> 10 µM (inactive)
CCOC(=O)/C=C/n1c2ccccc2c(=O)c2cc(OC)ccc21	> 100 µM (inactive)	65.2 µM (inactive)	39.9 µM	71.8 µM (inactive)	> 100 µM (inactive)	> 100 µM (inactive)	> 100 µM (inactive)	> 100 µM (inactive)	50.8 µM (inactive)	> 100 µM (inactive)	> 100 µM (inactive)	> 100 µM (inactive)	> 100 µM (inactive)	20.7 µM (inactive)	> 100 µM (inactive)
CN(C)CC1(Cc2ccccc2)CC/C(=C\c2ccccc2)C1=O (centres undefined)	69.2 µM (inactive)	31.3 µM (inactive)	19.8 µM	32.8 µM (inactive)	49.3 µM (inactive)	–	33.1 µM (inactive)	34.5 µM (inactive)	27 µM (inactive)	24 µM (inactive)	> 100 µM (inactive)	–	61 µM (inactive)	29.6 µM (inactive)	40.3 µM (inactive)
O=c1cc2ccccc2nn1Cc1ccccc1Cl	> 100 µM (inactive)	67.6 µM (inactive)	> 100 µM	> 100 µM (inactive)	> 100 µM (inactive)	> 100 µM (inactive)	> 100 µM (inactive)	> 100 µM (inactive)	> 100 µM (inactive)	–	> 100 µM (inactive)	> 100 µM (inactive)	> 100 µM (inactive)	> 100 µM (inactive)	> 100 µM (inactive)
CN1C/C(=C\c2ccc(C(=O)O)cc2)C(=O)/C(=C/c2ccc(C(=O)O)cc2)C1	> 100 µM (inactive)	> 100 µM (inactive)	> 100 µM	> 100 µM (inactive)	> 100 µM (inactive)	> 100 µM (inactive)	> 100 µM (inactive)	> 100 µM (inactive)	> 100 µM (inactive)	> 100 µM (inactive)	> 100 µM (inactive)	> 100 µM (inactive)	> 100 µM (inactive)	> 100 µM (inactive)	> 100 µM (inactive)
FC(F)(F)c1nc(-c2ccccc2)oc1Sc1oc(-c2ccccc2)nc1C(F)(F)F	> 100 µM (inactive)	40.3 µM (inactive)	> 100 µM	54.6 µM (inactive)	56.9 µM (inactive)	65.3 µM (inactive)	> 100 µM (inactive)	36.7 µM (inactive)	> 100 µM (inactive)	> 100 µM (inactive)	–	> 100 µM (inactive)	52.5 µM (inactive)	> 100 µM (inactive)	> 100 µM (inactive)
